Measured values published in patent publication US6762207B1, “(E)-styryl sulfone anticancer agents” (priority 1999, dated 2004).

Legend:
Format in all cases: cell-based
Design in all cases: dose or concentration left out as unconfirmed
Settings in all cases: 96 hours
[1] = test system: prostate tumor cell line DU-145; experiment: Trypan blue exclusion viability assay, DU145
Experimental: (§1) MCF-7 is estrogen-responsive, while BT-20 is an estrogen-unresponsive cell line. NIH/3T3 and HFL are normal murine and human fibroblasts, respectively. MCF-7, BT-20, DLD-1 and H157 were grown in Dulbecco's modified Eagle's medium (DMEM) containing 10% fetal bovine serum supplemented with penicillin and streptomycin. DU145 was cultured in RPMI with 10% fetal bovine serum containing penicillin and streptomycin. […] All cell cultures were maintained at 37° C. in a humidified atmosphere of 5% CO2. Cells were treated with test compound at 2.5 mM concentration and cell viability was determined after 96 hours by the Trypan blue exclusion method.

[2] = test system: non-small cell lung carcinoma cell line H157; experiment: Trypan blue exclusion viability assay, H157
Experimental: as §1

[3] = test system: colorectal carcinoma cell line DLD-1; experiment: Trypan blue exclusion viability assay, DLD-1
Experimental: as §1

[4] = test system: breast tumor cell line BT-20; experiment: Trypan blue exclusion viability assay, BT20
Experimental: as §1

O=[N+]([O-])c1ccc(CS(=O)(=O)/C=C/c2ccc(Cl)cc2)cc1 [Example 66, (E)-4-chlorostyryl-4-nitrobenzylsulfone]
Cell death, DU145 [1]: + (5-10%: = +) | Cell death, H157 [2]: + (5-10%: = +) | Cell death, DLD-1 [3]: + (5-10%: = +) | Cell death, BT20 [4]: + (5-10%: = +)

COc1ccc(CS(=O)(=O)/C=C/c2ccc(Cl)cc2)cc1 [Example 61, (E)-4-chlorostyryl-4-methoxybenzylsulfone]
Cell death, DU145 [1]: ++++ (50-60% = ++++) | Cell death, H157 [2]: ++++ (50-60% = ++++) | Cell death, DLD-1 [3]: ++++ (50-60% = ++++) | Cell death, BT20 [4]: ++++ (50-60% = ++++)

N#Cc1ccc(CS(=O)(=O)/C=C/c2ccc([N+](=O)[O-])cc2)cc1 [Example 54, (E)-4-nitrostyryl-4-cyanobenzylsulfone]
Cell death, DU145 [1]: ++++ (50-60% = ++++) | Cell death, H157 [2]: ++++ (50-60% = ++++) | Cell death, DLD-1 [3]: ++++ (50-60% = ++++) | Cell death, BT20 [4]: ++++ (50-60% = ++++)

O=S(=O)(/C=C/c1ccc(Cl)cc1)Cc1ccc(I)cc1 [Example 23, (E)-4-Chlorostyryl-4-iodobenzylsulfone]
Cell death, DU145 [1]: ++ (10-15% = ++) | Cell death, H157 [2]: ++ (10-15% = ++) | Cell death, DLD-1 [3]: ++ (10-15% = ++) | Cell death, BT20 [4]: +++ (40-50% = +++)

Cc1ccc(CS(=O)(=O)/C=C/c2ccc(F)cc2)cc1 [Example 55, (E)-4-fluorostyryl-4-methylbenzylsulfone]
Cell death, DU145 [1]: + (5-10%: = +) | Cell death, H157 [2]: + (5-10%: = +) | Cell death, DLD-1 [3]: + (5-10%: = +) | Cell death, BT20 [4]: + (5-10%: = +)

N#Cc1ccc(CS(=O)(=O)/C=C/c2ccccc2[N+](=O)[O-])cc1 [Example 52, (E)-2-nitrostyryl-4-cyanobenzylsulfone]
Cell death, DU145 [1]: + (5-10%: = +) | Cell death, H157 [2]: + (5-10%: = +) | Cell death, DLD-1 [3]: + (5-10%: = +) | Cell death, BT20 [4]: + (5-10%: = +)

O=S(=O)(/C=C/c1ccccc1C(F)(F)F)Cc1ccc(F)cc1 [Example 32, (E)-2-trifluoromethylstyryl-4-fluorobenzylsulfone]
Cell death, DU145 [1]: + (5-10%: = +) | Cell death, H157 [2]: + (5-10%: = +) | Cell death, DLD-1 [3]: + (5-10%: = +) | Cell death, BT20 [4]: + (5-10%: = +)

O=S(=O)(/C=C/c1ccccc1C(F)(F)F)Cc1ccc(Cl)cc1 [Example 39, (E)-2-trifluoromethylstyryl-4-chlorobenzylsulfone]
Cell death, DU145 [1]: + (5-10%: = +) | Cell death, H157 [2]: + (5-10%: = +) | Cell death, DLD-1 [3]: + (5-10%: = +) | Cell death, BT20 [4]: + (5-10%: = +)

O=S(=O)(/C=C/c1cccc(C(F)(F)F)c1)Cc1ccc(Cl)cc1 [Example 40, (E)-3-trifluoromethylstyryl-4-chlorobenzylsulfone]
Cell death, DU145 [1]: + (5-10%: = +) | Cell death, H157 [2]: + (5-10%: = +) | Cell death, DLD-1 [3]: + (5-10%: = +) | Cell death, BT20 [4]: + (5-10%: = +)

O=[N+]([O-])c1ccc(/C=C/S(=O)(=O)Cc2ccc(Br)cc2)cc1 [Example 48, (E)-4-nitrostyryl-4-bromobenzylsulfone]
Cell death, DU145 [1]: ++++ (50-60% = ++++) | Cell death, H157 [2]: ++++ (50-60% = ++++) | Cell death, DLD-1 [3]: ++++ (50-60% = ++++) | Cell death, BT20 [4]: ++++ (50-60% = ++++)

O=S(=O)(/C=C/c1ccc(F)cc1C(F)(F)F)Cc1ccc(Cl)cc1 [Example 42, (E)-2-trifluoromethyl-4-fluorostyryl-4-chlorobenzylsulfone]
Cell death, DU145 [1]: + (5-10%: = +) | Cell death, H157 [2]: + (5-10%: = +) | Cell death, DLD-1 [3]: + (5-10%: = +) | Cell death, BT20 [4]: + (5-10%: = +)

COc1ccc(CS(=O)(=O)/C=C/c2ccc([N+](=O)[O-])cc2)cc1 [Example 65, (E)-4-nitrostyryl-4-methoxybenzylsulfone]
Cell death, DU145 [1]: ++++ (50-60% = ++++) | Cell death, H157 [2]: ++++ (50-60% = ++++) | Cell death, DLD-1 [3]: ++++ (50-60% = ++++) | Cell death, BT20 [4]: ++++ (50-60% = ++++)

O=S(=O)(/C=C/c1ccc(C(F)(F)F)cc1)Cc1ccc(Cl)cc1 [Example 41, (E)-4-trifluoromethylstyryl-4-chlorobenzylsulfone]
Cell death, DU145 [1]: + (5-10%: = +) | Cell death, H157 [2]: + (5-10%: = +) | Cell death, DLD-1 [3]: + (5-10%: = +) | Cell death, BT20 [4]: + (5-10%: = +)

Cc1ccc(CS(=O)(=O)/C=C/c2cccc([N+](=O)[O-])c2)cc1 [Example 58, (E)-3-nitrostyryl-4-methylbenzylsulfone]
Cell death, DU145 [1]: + (5-10%: = +) | Cell death, H157 [2]: + (5-10%: = +) | Cell death, DLD-1 [3]: + (5-10%: = +) | Cell death, BT20 [4]: + (5-10%: = +)

Cc1ccc(CS(=O)(=O)/C=C/c2ccc([N+](=O)[O-])cc2)cc1 [Example 59, (E)-4-nitrostyryl-4-methylbenzylsulfone]
Cell death, DU145 [1]: + (5-10%: = +) | Cell death, H157 [2]: + (5-10%: = +) | Cell death, DLD-1 [3]: + (5-10%: = +) | Cell death, BT20 [4]: + (5-10%: = +)

O=[N+]([O-])c1ccccc1/C=C/S(=O)(=O)Cc1ccc(Cl)cc1 [Example 36, (E)-2-nitrostyryl-4-chlorobenzylsulfone]
Cell death, DU145 [1]: + (5-10%: = +) | Cell death, H157 [2]: + (5-10%: = +) | Cell death, DLD-1 [3]: + (5-10%: = +) | Cell death, BT20 [4]: + (5-10%: = +)

O=[N+]([O-])c1cccc(/C=C/S(=O)(=O)Cc2ccc(Br)cc2)c1 [Example 47, (E)-3-nitrostyryl-4-bromobenzylsulfone]
Cell death, DU145 [1]: + (5-10%: = +) | Cell death, H157 [2]: + (5-10%: = +) | Cell death, DLD-1 [3]: + (5-10%: = +) | Cell death, BT20 [4]: + (5-10%: = +)

O=S(=O)(/C=C/c1ccc(F)cc1C(F)(F)F)Cc1ccc(Cl)cc1Cl [Example 45, (E)-2-trifluoromethyl-4-fluorostyryl-2,4-dichlorobenzylsulfone]
Cell death, DU145 [1]: +++ (40-50% = +++) | Cell death, H157 [2]: +++ (40-50% = +++) | Cell death, DLD-1 [3]: +++ (40-50% = +++) | Cell death, BT20 [4]: +++ (40-50% = +++)

COc1ccc(CS(=O)(=O)/C=C/c2cccc([N+](=O)[O-])c2)cc1 [Example 64, (E)-3-nitrostyryl-4-methoxybenzylsulfone]
Cell death, DU145 [1]: + (5-10%: = +) | Cell death, H157 [2]: + (5-10%: = +) | Cell death, DLD-1 [3]: + (5-10%: = +) | Cell death, BT20 [4]: + (5-10%: = +)

O=[N+]([O-])c1cccc(/C=C/S(=O)(=O)Cc2ccc(Cl)cc2)c1 [Example 37, (E)-3-nitrostyryl-4-chlorobenzylsulfone]
Cell death, DU145 [1]: + (5-10%: = +) | Cell death, H157 [2]: + (5-10%: = +) | Cell death, DLD-1 [3]: + (5-10%: = +) | Cell death, BT20 [4]: + (5-10%: = +)

O=[N+]([O-])c1cccc(/C=C/S(=O)(=O)Cc2ccc(F)cc2)c1 [Example 30, (E)-3-nitrostyryl-4-fluorobenzylsulfone]
Cell death, DU145 [1]: + (5-10%: = +) | Cell death, H157 [2]: + (5-10%: = +) | Cell death, DLD-1 [3]: + (5-10%: = +) | Cell death, BT20 [4]: + (5-10%: = +)

O=S(=O)(/C=C/c1ccc(I)cc1)Cc1ccc(Cl)cc1 [Example 21, (E)-4-Iodostyryl-4-chlorobenzylsulfone]
Cell death, DU145 [1]: ++ (10-15% = ++) | Cell death, H157 [2]: ++ (10-15% = ++) | Cell death, DLD-1 [3]: ++ (10-15% = ++) | Cell death, BT20 [4]: ++ (10-15% = ++)
